Assay results taken from PubChem BioAssay AID1963439 (Molecular Pharmacology Branch, DTP, NCI, 2024).

Test system: NCI-H196 complex spheroids with HUVEC/MSC, growth % T/C
Experiment: Anticancer human tumor NCI-H196 cell line growth inhibition [Asc];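 further: spheroids exposed to compound for 7 days before measurement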;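 on viability, T/C: 100% = DMSO vehicle control wells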
Conditions: for IC50: curve of first compound; for viability, T/C: stronger effect = lower value
Protocol: Multicellular complex tumor spheroid response to apoptosis pathway targeting inhibitors Alrizomadlin, Pelcitoclax, and Dasminapant in combination with a variety of drugs and investigational agents in selected tumor cell lines
The MDM2 inhibitor alrizomadlin, the Bcl-2/Bcl-xL inhibitor pelcitoclax, and the IAPs inhibitor dasminapant were evaluated both individually and in combination with standard of care and investigational anticancer small molecules within a complex spheroid model of solid tumors. . Complex spheroids include a stromal component modeled by human endothelial cells (HUVEC) and fibroblasts modeled by human mesenchymal stem cells (MSCs). The concentration ranges selected for each drug and investigational agent were based upon clinically achievable concentrations if the clinical Cmax of the agent was known.
Compounds. The drugs and investigational agents: alrizomadlin (APG-115; NSC831270), pelcitoclax (APG-1252; NSC835773), dasminapant (APG-1387;NSC834197), TAK-243 (NSC785004), copanlisib (NSC809693), olaparib (NSC753686), talazoparib (NSC767125), cobimetinib (NSC 768068), eltanexor (KPT-8602, NSC 794443), abemaciclib (NSC 768073), sotorasib (NSC818433), adagrasib (NSC 831453), MRTX-1133 (NSC 836407), Iadademestat (ORY1001, NSC 806812), and RMC-4630 (NSC839698), were obtained from the NCI Developmental Therapeutics Program Chemical Repository. The FDA-approved anticancer drug set is available from the Developmental Therapeutics Program at https://dtp.cancer.gov/organization/dscb/obtaining/available plates.htm. […] The stock solutions were prepared in dimethyl sulfoxide (DMSO, Sigma-Aldrich, St. Louis, MO, cat. D2650) at 800-fold the tested concentration and stored at -70 degrees C prior to their use. All drugs and investigational agents were tested over a range starting from a high concentration at or near the clinical Cmax and decreasing in half-log increments. If the clinical Cmax for an agent had not been determined, the highest concentration tested was 10 microM.
The patient-derived cancer (PDC) cell lines include five colon adenocarcinomas: 186277-243-T-J2-PDC, 616215-338-R-J1-PDC, 439559-082-T-J2-PDC, 463943-066-T-J2-PDC, and 519858-162-T-J1-PDC; three pancreatic carcinomas: 323965-272-R-J2-PDC, 521955-158-R6-J3-PDC, and 521955-158-R2-J5-PDC; two uterine sarcomas: 327498-152-R-J2-PDC and 993429-296-R-J1-PDC; two rhabdomyosarcomas: 755483-174-R-J1-PDC and 772245-204-R-J1-PDC; two soft tissue sarcomas: 126254-015-R-J1-PDC and 494315-158-R-J1-PDC; two malignant fibrous histiocytomas: 317291-083-R-J1-PDC and 596521-263-R-J1-PDC; two breast carcinomas: 171881-019-R-J1-PDC and 885512-296-R-J2-PDC; and one ovarian carcinoma: 6556581-035-R-J-PDC were obtained from the NCI PDMR, (https://pdmr.cancer.gov). The established cell lines HSSY-2 synovial sarcoma (RRID:CVCL 8719), SYO-1 synovial sarcoma (RRID:CVCL_7146), MPNST malignant peripheral neural sheath tumor were obtained from the Sloan Kettering Institute. The following established cell lines were purchased from the American Type Culture Collection (ATCC, Manassas, VA), Sor the received from the NCI repository:, PANC-1 pancreatic carcinoma (CRL-1469, RRID:CVCL_0480), OVCAR-5 ovarian carcinoma (RRID:CVCL_1628), OVCAR-8 ovarian carcinoma (RRID:CVCL_1629), , MCF-7 breast carcinoma (CRL-12584, RRID:CVCL_0031), MDA-MB-231 breast carcinoma (CRL-12532, RRID:CVCL_0062), NCI-H1876 small cell lung carcinoma (CRL-5902, RRID:CVCL_1503), NCI-H510A small cell lung carcinoma (HTB-184, RRID:CVCL_1565), NCI-H1417 (CRL-5869, RRID:CVCL_1469), and NCI-H196 small cell lung carcinoma (CRL-5823, RRID:CVCL_1509). Dr. Peter Houghton (Greehey Children's Cancer Research Institute, University of Texas Health Science Center, San Antonio, TX) provided Rh-18 rhabdomyosarcoma (RRID:CVCL_1659). Pooled donor human umbilical vein endothelial cells (HUVEC, Lonza, cat. CC-2519) and human mesenchymal stem cells (hMSC, Lonza, cat. PT-2501) were purchased from Lonza (Walkersville, MD).
Cell Culture. […]

`COc1c(OCCCN2CCOCC2)ccc2c3n(c(=NC(=O)c4cnc(N)nc4)nc12)CCN3` + CNC(C)C(=O)NC1CN(S(=O)(=O)c2cccc(S(=O)(=O)N3CCC4CCC(C(=O)NC(c5ccccc5)c5ccccc5)N4C(=O)C(NC(=O)C(C)NC)C3)c2)CCC2CCC(C(=O)NC(c3ccccc3)c3ccccc3)N2C1=O was tested, and the IC50 (second compound 0.01 µM) was < 3.16 nM, the IC50 (second compound 0.0316 µM) was < 3.16 nM and the IC50 (second compound 0.1 µM) was < 3.16 nM. The IC50 (second compound 0.316 µM) was < 3.16 nM, the IC50 (second compound 1 µM) was < 3.16 nM and the viability, T/C (second compound 0.01 µM, first compound 0.00316 µM) was 5.54%. The viability, T/C (second compound 0.01 µM, first compound 0.01 µM) was 4.98%, the viability, T/C (second compound 0.01 µM, first compound 0.0316 µM) was 5.78% and the viability, T/C (second compound 0.01 µM, first compound 0.1 µM) was 6.94%. For the same compound, the viability, T/C (second compound 0.01 µM, first compound 0.316 µM) was 10.4%, the viability, T/C (second compound 0.01 µM, first compound 1 µM) was 12.5% and the viability, T/C (second compound 0.0316 µM, first compound 0.00316 µM) was 4.98%. It also gave a viability, T/C (second compound 0.0316 µM, first compound 0.01 µM) of 5.47%, a viability, T/C (second compound 0.0316 µM, first compound 0.0316 µM) of 4.38% and a viability, T/C (second compound 0.0316 µM, first compound 0.1 µM) of 4.6%. The viability, T/C (second compound 0.0316 µM, first compound 0.316 µM) was 5.64%, the viability, T/C (second compound 0.0316 µM, first compound 1 µM) was 9.69% and the viability, T/C (second compound 0.1 µM, first compound 0.00316 µM) was 2.54%. For the same compound, the viability, T/C (second compound 0.1 µM, first compound 0.01 µM) was 3.24%, the viability, T/C (second compound 0.1 µM, first compound 0.0316 µM) was 3.31% and the viability, T/C (second compound 0.1 µM, first compound 0.1 µM) was 2.53%. The viability, T/C (second compound 0.1 µM, first compound 0.316 µM) was 5.11%, the viability, T/C (second compound 0.1 µM, first compound 1 µM) was 4.24% and the viability, T/C (second compound 0.316 µM, first compound 0.00316 µM) was 3.55%. For the same compound, the viability, T/C (second compound 0.316 µM, first compound 0.01 µM) was 2.22%, the viability, T/C (second compound 0.316 µM, first compound 0.0316 µM) was 1.86% and the viability, T/C (second compound 0.316 µM, first compound 0.1 µM) was 3.02%. For the same compound, the viability, T/C (second compound 0.316 µM, first compound 0.316 µM) was 3.25%, the viability, T/C (second compound 0.316 µM, first compound 1 µM) was 3.07% and the viability, T/C (second compound 1 µM, first compound 0.00316 µM) was 2.39%. The viability, T/C (second compound 1 µM, first compound 0.01 µM) was 2.16%, the viability, T/C (second compound 1 µM, first compound 0.0316 µM) was 2.41% and the viability, T/C (second compound 1 µM, first compound 0.1 µM) was 2.12%. It also gave a viability, T/C (second compound 1 µM, first compound 0.316 µM) of 1.61% and a viability, T/C (second compound 1 µM, first compound 1 µM) of 2.15%.
